{
  "source": "patent US9198415B2",
  "about": "“Plant irrigation methods” (Syngenta Participations AG, priority 2010, dated 2015)",
  "assay_type_in_all_cases": "in vivo",
  "key": {"Corn plants": {"tested_on": "Corn plants", "test": "Corn in 55-gal lysimeter containers, sub-surface chemigation, deficit water conditions, yield and root architecture", "details": "maximum labeled rate; for Yield (% difference from UTC): sub-surface chemigation at V3/V4, deficit water (50% plant-available water), 12 plants; for Relative number of fine roots (% difference from UTC): sub-surface chemigation at V3/V4, deficit water, measured within 2 weeks of harvest by digital imaging", "from_the_text": "In this experiment, standardized growth conditions were applied across all corn treatments including: soil-water availability, soil texture and composition, soil chemical and physical properties, meteorological and environmental parameters, and plant nutrition in a greenhouse. No indication of plant disease or pest damage was observed over the course of the study and no pest management program was necessary. A homogeneous sand-organic matter soil mixture (0.18% organic matter) was used as the growth medium in 55-gal containers. These containers were used as a weighing lysimeter, where daily changes in system weight were used to calculate plant transpiration. Four corn plants were grown in each 55-gal container. Three 55-gal containers (12 plants total) made up each treatment. All irrigation and chemical treatments were applied via sub-surface irrigation. Chemical treatments consisted of: azoxystrobin (Quadris), paclobutrazol (Trimmit), trinexapac-ethyl (Moddus), and propiconazole (Tilt) at maximum labeled rates.\nCorn plants were grown from seed and transplanted in the 55-gal drums approximately 14 days after planting. Uniform adequate irrigation was applied up to growth stage V3/V4 to ensure plant establishment. Chemical treatment applications were applied at growth stage V3/V4 via sub-surface chemigation. At stage V3/V4, irrigation was decreased to replicate deficit water conditions across all treatments for the remainder of the study period. Irrigation was managed daily to maintain 50% plant-available water. Visual signs of abiotic plant stress were observed approximately 30 days after chemical application. All corn plants were grown to yield and cobs were harvested when kernels were uniformly dry (15% moisture content). Root architecture, specifically relative number of fine roots, was measured at within 2 weeks of harvest using a digital imaging technique. Fine roots are related to water uptake productivity, which is directly tied to the ability of the plant to access soil-water under stress.\nEffects of the chemical treatments via sub-surface irrigation on yield and root architecture were specifically documented. The effects are herein reported as the percentage increase compared to the untreated check (12 plants in three containers). […] Azoxystrobin, paclobutrazol, and trinexapac-ethyl were statistically different from the control (P values: <0.001 at the 95th percentile confidence interval)."}, "Soybean plants [1]": {"tested_on": "Soybean plants", "test": "Soybean plants in pouches, drench application, drought stress and rewatering, shoot dry weight", "details": "for Total Shoot Weight: 6 days drought, shoot dry weight 2 days after rewatering, 40 plants, untreated check 4.3 g", "experimental": "Soybean plants were grown in pouches (in filter paper bags) and either BION or Thiamethoxam was applied to the water at different rates (see FIG. 2). Sowing and drench application of the compounds occurred simultaneously. After 8 days of optimal growth, the pouches went dry and plants were grown under drought stress conditions for 6 days. At the end of the drought period, plants were rewatered and shoot dry weight was determined 2 days later (Table 2). In total, 40 plants per treatment and 40 untreated check plants were assessed."}, "Soybean plants [2]": {"tested_on": "Soybean plants", "test": "Soybean plants in pouches, drench application, severe drought stress, qualitative ranking of physiological state", "details": "for Plant physiological state: Desiccated (number of plants in %) / Plant physiological state: Slightly withered (number of plants in %) / Plant physiological state: Strongly withered (number of plants in %) / Plant physiological state: Turgescent (number of plants in %): evaluation 14 days after application", "experimental": "Soybean plants were grown in pouches (in filter paper bags), and 100 plants each were treated with BION at 3 rates (60, 20, 2 ppm), added to the drench water. Sowing and drench application of BION occurred simultaneously. After 8 days of optimal growth, the pouches went dry and plants were grown for several days under severe drought stress conditions until evaluation (14 days after application). A qualitative assessment was carried out, ranking the plants behaviour into four categories corresponding to four different physiological states (turgescent, slightly withered, strongly withered and desiccated) (Table 1)"}, "[3]": {"details": "2 ppm in drench water, severe drought"}, "[4]": {"details": "20 ppm in drench water, severe drought"}, "[5]": {"details": "60 ppm in drench water, severe drought"}},
  "note": "Marks after values point to notes of the source that are not given here.",
  "data": [
    {"smiles": "CO/C=C(/C(=O)OC)c1ccccc1Oc1cc(Oc2ccccc2C#N)ncn1", "note": "[Azoxystrobin]", "values": [
      {"measurement": "Yield (% difference from UTC)", "setting": "Corn plants", "value": "12.5† %"},
      {"measurement": "Relative number of fine roots (% difference from UTC)", "setting": "Corn plants", "value": "37.3† %"}
    ]},
    {"smiles": "CCCC1COC(Cn2cncn2)(c2ccc(Cl)cc2Cl)O1", "note": "(stereo not drawn) [Propiconazole]", "values": [
      {"measurement": "Yield (% difference from UTC)", "setting": "Corn plants", "value": 3.3, "unit": "%"},
      {"measurement": "Relative number of fine roots (% difference from UTC)", "setting": "Corn plants", "value": "39.4† %"}
    ]},
    {"smiles": "CN1COCN(Cc2cnc(Cl)s2)/C1=N\\[N+](=O)[O-]", "note": "[TMX]", "values": [
      {"measurement": "Total Shoot Weight", "setting": "Soybean plants [1]; 3 ppm in water", "value": 4.6, "unit": "g"},
      {"measurement": "Total Shoot Weight", "setting": "Soybean plants [1]; 12 ppm in water", "value": 5.8, "unit": "g"}
    ]},
    {"smiles": "CC(C)(C)[C@@H](O)[C@@H](Cc1ccc(Cl)cc1)n1cncn1", "note": "(racemic) [Paclobutrazol, (2RS,3RS)-1-(4-chlorophenyl)-4,4-dimethyl-2-(1H-1,2,4-triazol-1-yl)pentan-3-01]", "values": [
      {"measurement": "Yield (% difference from UTC)", "setting": "Corn plants", "value": "16.6† %"},
      {"measurement": "Relative number of fine roots (% difference from UTC)", "setting": "Corn plants", "value": "70.0† %"}
    ]},
    {"smiles": "CSC(=O)c1cccc2nnsc12", "note": "[ASM, S-methyl benzo[1,2,3]thiadiazole-7-carbothioate]", "values": [
      {"measurement": "Plant physiological state: Desiccated (number of plants in %)", "setting": "Soybean plants [2]; [3]", "value": 0.0, "unit": "%"},
      {"measurement": "Plant physiological state: Slightly withered (number of plants in %)", "setting": "Soybean plants [2]; [3]", "value": 70.0, "unit": "%"},
      {"measurement": "Plant physiological state: Strongly withered (number of plants in %)", "setting": "Soybean plants [2]; [3]", "value": 5.0, "unit": "%"},
      {"measurement": "Plant physiological state: Turgescent (number of plants in %)", "setting": "Soybean plants [2]; [3]", "value": 25.0, "unit": "%"},
      {"measurement": "Plant physiological state: Desiccated (number of plants in %)", "setting": "Soybean plants [2]; [4]", "value": 5.3, "unit": "%"},
      {"measurement": "Plant physiological state: Slightly withered (number of plants in %)", "setting": "Soybean plants [2]; [4]", "value": 7.9, "unit": "%"},
      {"measurement": "Plant physiological state: Strongly withered (number of plants in %)", "setting": "Soybean plants [2]; [4]", "value": 2.6, "unit": "%"},
      {"measurement": "Plant physiological state: Turgescent (number of plants in %)", "setting": "Soybean plants [2]; [4]", "value": 84.2, "unit": "%"},
      {"measurement": "Plant physiological state: Desiccated (number of plants in %)", "setting": "Soybean plants [2]; [5]", "value": 0.0, "unit": "%"},
      {"measurement": "Plant physiological state: Slightly withered (number of plants in %)", "setting": "Soybean plants [2]; [5]", "value": 15.2, "unit": "%"},
      {"measurement": "Plant physiological state: Strongly withered (number of plants in %)", "setting": "Soybean plants [2]; [5]", "value": 0.0, "unit": "%"},
      {"measurement": "Plant physiological state: Turgescent (number of plants in %)", "setting": "Soybean plants [2]; 60 ppm in drench water, severe drought, 100 plants", "value": 84.8, "unit": "%"},
      {"measurement": "Treated plants still fully turgescent at the end of the drought period", "setting": "Soybean plants [2]; dose not stated, severe drought", "value": "more than 80%"},
      {"measurement": "Behaviour of treated plants after severe drought compared to untreated check", "setting": "Soybean plants [2]; qualitative", "value": "behaved much better after severe drought"},
      {"measurement": "Total Shoot Weight", "setting": "Soybean plants [1]; 5 ppm in water", "value": 4.1, "unit": "g"},
      {"measurement": "Total Shoot Weight", "setting": "Soybean plants [1]; 15 ppm in water", "value": 5.6, "unit": "g"},
      {"measurement": "Health of treated plants after drought compared to untreated check", "setting": "Soybean plants [1]; qualitative, FIG. 1", "value": "behaved extremely healthy"}
    ]},
    {"smiles": "CCOC(=O)C1CC(=O)C(=C(O)C2CC2)C(=O)C1", "note": "(stereo not drawn) [Trinexapac-ethyl]", "values": [
      {"measurement": "Yield (% difference from UTC)", "setting": "Corn plants", "value": "15.6† %"},
      {"measurement": "Relative number of fine roots (% difference from UTC)", "setting": "Corn plants", "value": "34.3† %"}
    ]}
  ]
}
